The source made the active and inactive calls. The rule behind the calls is not given here. Peptide text beside a SMILES is read from it.

Here are results for 2 compounds from ChEMBL document CHEMBL2429744, “Anticancer activities of an antimicrobial peptide derivative of Ixosin-B amide” (Bioorg Med Chem Lett, 2013).

Data set [1] has as its system MCF7. Kind of data set: Antimigratory activity against human MCF7 cells assessed as inhibition of wound-healing activity at 5 uM after 48 hrs by phase contrast microscopic analysis relative to untreated control. It is filed as functional.
Data set [2] deals with MCF7. Kind of data set: Antiproliferative activity against human MCF7 cells assessed as cell viability at 100 uM after 48 hrs by MTT assay. It counts as functional, cell-based. For orientation: Tetrazolium dyes change colour on reduction, which living cells bring about.
For data set [3], the system named is MCF7. Briefly: Induction of cortical alpha-tubulin structural changes in human MCF7 cells at 25 uM after 24 to 48 hrs using AlexaFluor 488 and TRITC staining by confocal microscopic analysis relative to untreated control. It is filed as functional, cell-based.
The test system of data set [4] is MCF7. Briefly: Induction of cell death in human MCF7 cells at 25 uM after 24 hrs. The following applies: mcf7, 24 h. It counts as cell-based.
Data set [5] has as its system MCF7. Briefly: Antimigratory activity against human MCF7 cells assessed as inhibition of wound-healing activity at 1 uM after 24 hrs by phase contrast microscopic analysis relative to untreated control. It counts as functional, cell-based.
Data set [6] concerns MCF7. Briefly: Inhibition of F-actin structural changes in human MCF7 cells at 25 uM after 24 to 48 hrs using AlexaFluor 488 and TRITC staining by confocal microscopic analysis. It counts as functional, cell-based.
The test system of data set [7] is MCF7. Briefly: Induction of morphological changes in human MCF7 cells at 1 uM after 24 to 48 hrs by confocal microscopic analysis relative to untreated control. It counts as functional, cell-based.
In data set [8] the test system is MCF7. Briefly: Induction of morphological changes in human MCF7 cells assessed as cell shrinkage at 5 uM after 24 to 48 hrs by confocal microscopic analysis relative to untreated control. It counts as functional, cell-based.
For data set [9], the system named is MCF7. Briefly: Induction of alpha-tubulin mislocalization in human MCF7 cells assessed as appearance of aggregated protein around nucleus at 5 uM after 24 to 48 hrs by confocal microscopic analysis relative to untreated control. It counts as functional, cell-based.
Data set [10] relates to MCF7. Briefly: Antiproliferative activity against human MCF7 cells assessed as cell viability after 48 hrs by MTT assay. It counts as functional, cell-based. As to conditions: MCF7, 48 h.
Data set [11] deals with MCF7. Kind of data set: Ratio of cytotoxic activity to antimigratory activity against human MCF7 cells. It counts as functional.

With `CC(C)C[C@H](NC(=O)[C@H](CCCNC(=N)N)NC(=O)[C@@H](N)CCCCN)C(=O)N[C@@H](CCCNC(=N)N)C(=O)N[C@@H](CCCNC(=N)N)C(=O)N[C@H](C(=O)N[C@@H](Cc1c[nH]c2ccccc12)C(=O)N[C@@H](CCCNC(=N)N)C(=O)N[C@@H](CCCNC(=N)N)C(=O)N[C@@H](Cc1c[nH]c2ccccc12)C(=O)N[C@@H](CCCNC(=N)N)C(N)=O)C(C)C` (H-KRLRRVWRRWR-NH2), the inhibition (usually the share of the control response that was lost under treatment) in the data set with MCF7 [1] was “inactive”. Besides, the result in the data set with MCF7 [2] was inactive.

For `CC(C)C[C@H](NC(=O)[C@H](Cc1c[nH]c2ccccc12)NC(=O)[C@@H](N)CCCCN)C(=O)N[C@@H](CCCNC(=N)N)C(=O)N[C@@H](CCCNC(=N)N)C(=O)N[C@H](C(=O)N[C@@H](Cc1c[nH]c2ccccc12)C(=O)N[C@@H](CCCNC(=N)N)C(=O)N[C@@H](Cc1c[nH]c2ccccc12)C(=O)N[C@@H](Cc1c[nH]c2ccccc12)C(=O)N[C@@H](CCCNC(=N)N)C(N)=O)C(C)C` (H-KWLRRVWRWWR-NH2), the inhibition result with MCF7 [3] and in the data set with MCF7 [6] was “Active” in each case. Also, the Activity result in the data set with MCF7 [4] is given as “Toxic”. The outcome with MCF7 [5] and with MCF7 [7] was inactive. In addition, the inhibition at 5 µM with MCF7 [1] (MCF7, 48 h) amounted to 40%. In addition, the outcome in the data set with MCF7 [8] and in the data set with MCF7 [9] was Active. Moreover, in the data set on MCF7 [10], the IC50 – broadly, the concentration at which inhibition is half-maximal – came to 61.5 µM. In the data set with MCF7 [11], the Ratio turned out to be 10.
